Publication PMC9019100, “Development of NanoLuc-targeting protein degraders and a universal reporter system to benchmark tag-targeted degradation platforms” (Nature Communications, 2022)

Assays:
Type in all cases: cell-based
MLKL-FKBP^F36V = MLKL-FKBP^F36V (Homo sapiens, UniProt P62942, F37V); conditions: 5 h, low nM concentrations
Method: All experiments were repeated independently three times, and a representative Fig. is shown.
All timepoint experiments were performed as reverse timepoints in order to harvest all cells at the same time. At the indicated time points cells were lysed in NuPAGE LDS lysis buffer (Invitrogen) diluted to 1× in DISC lysis buffer (20 mM Tris-HCl pH7.5, 150 mM NaCl, 2 mM EDTA pH 8.0, 1% Triton X-100, 10% glycerol, H20)) supplemented with β-Mercaptoethanol (2%), protease and phosphatase inhibitors. Lysates were run through polypropylene columns (Pierce) to shred DNA. […] Membranes were blocked in 5% skim milk (Devondale) in TBS-T (TBS, 0.1% Tween-20) for 1 h prior to immunoblotting with primary antibodies overnight at 4 °C. Unless stated otherwise, all primary antibodies were diluted in TBS-T (TBS, 0.1% Tween-20) containing 5% BSA (Sigma A8022) and 0.04% sodium azide: HaloTag (1:1000, Promega; G9211), NanoLuc (1:500, Promega; N7000), β-actin (1:20,000, Sigma; A-1798), MLKL (1:1000, produced in-house; 3H1 clone)[39], FKBP (1:1000, R&D systems; 422513), caspase-8 (1:1000, Proteintech; 13423-1-AP), Histone H3 (1:1000, Abcam; ab10799), Cadherin (1:1000, Cell Signalling Technologies; 4068 T). Membranes were washed 3 × 5–10 min in TBS-T (TBS, 0.1% Tween-20) prior to the addition of the appropriate secondary antibodies conjugated with horseradish peroxidase (Jaxon laboratories). […]

MLKL-NLuc = biological target: T1, MLKL-NLuc (Oplophorus gracilirostris, UniProt Q9GV45, A31E/A60N/A81I/F95D/I117V/K70R/L54V/L99Q/M102K/N193R/P142E/Q151K/Q38R/Q45L/V71I/Y165I); conditions: 5 h
T1 construct: expressed in transfected cells; host or cells: MLKL-/- HT29 (A12); MLKL-/-CASP8-/- HT29 (A24); doxycycline-inducible
T1 sequence (Q9GV45 other isoform, or with tags, fused parts or gaps with the stated changes): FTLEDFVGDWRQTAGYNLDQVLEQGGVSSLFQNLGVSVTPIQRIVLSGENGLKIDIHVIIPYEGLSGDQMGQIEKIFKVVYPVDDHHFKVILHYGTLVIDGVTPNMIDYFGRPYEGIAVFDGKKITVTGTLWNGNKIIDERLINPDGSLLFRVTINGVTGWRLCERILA

[1] = biological target: Halo-EGFP-NanoLuc-FKBP^F36V (H-E-N-F) fusion protein (UniProt P0A3G2+P62942+Q9GV45, A155T/A167V/A172T/A224E/A31E/A60N/A81I/C128F/C176G/D78G/E160K/E257K/F37V/F95D/H272N/I117V/K175M/K195N/K70R/L47V/L54V/L88M/L99Q/M102K/N193R/N227D/P142E/P291S/Q151K/Q38R/Q45L/S2A/S58T/T264A/V71I/Y165I/Y273L/Y87F); conditions: 5 h
Sequence of Halo-EGFP-NanoLuc-FKBP^F36V (H-E-N-F) fusion protein (Q9GV45 other isoform, or with tags, fused parts or gaps with the stated changes): as above
Sequence of Halo-EGFP-NanoLuc-FKBP^F36V (H-E-N-F) fusion protein (P0A3G2 other isoform, or with tags, fused parts or gaps with the stated changes): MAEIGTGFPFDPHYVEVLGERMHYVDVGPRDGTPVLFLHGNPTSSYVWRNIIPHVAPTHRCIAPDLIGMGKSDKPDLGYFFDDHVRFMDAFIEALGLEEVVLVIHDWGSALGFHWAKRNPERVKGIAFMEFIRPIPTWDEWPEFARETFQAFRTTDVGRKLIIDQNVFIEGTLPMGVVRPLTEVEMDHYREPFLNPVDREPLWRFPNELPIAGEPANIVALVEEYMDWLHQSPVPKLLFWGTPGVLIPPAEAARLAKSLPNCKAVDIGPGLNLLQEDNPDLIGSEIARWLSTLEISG
Sequence of Halo-EGFP-NanoLuc-FKBP^F36V (H-E-N-F) fusion protein (P62942 whole entry F37V, the tested form may be a part): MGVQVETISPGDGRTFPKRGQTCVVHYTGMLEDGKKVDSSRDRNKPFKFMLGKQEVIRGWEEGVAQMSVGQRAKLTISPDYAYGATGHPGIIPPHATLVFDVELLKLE

Sequence of MLKL-FKBP^F36V (P62942 whole entry F37V): as the sequence (P62942 whole entry F37V, the tested form may be a part) above

| Compound | MLKL-FKBP^F36V protein level by Western blot (MLKL-FKBP^F36V) | depletion of MLKL-NLuc (MLKL-NLuc) | degradation of the H-E-N-F substrate protein by Western blot, comparison of NanoTACs ([1]; 125-500 nM) | low concentration triggering degradation of the fusion protein ([1]; Western blot) |
| --- | --- | --- | --- | --- |
| CC[C@H](C(=O)N1CCCC[C@H]1C(=O)O[C@H](CCc1ccc(OC)c(OC)c1)c1ccccc1OCC(=O)NCCCCCCC(=O)N[C@H](C(=O)N1C[C@H](O)C[C@H]1C(=O)N[C@@H](C)c1ccc(-c2scnc2C)cc1)C(C)(C)C)c1cc(OC)c(OC)c(OC)c1 [FV1] | no detectable protein |  |  |  |
| CCc1cccc(N(CC)C(=O)Cn2c(C(=O)NC3CCC(C(=O)NCCCCCCCC(=O)NCCCCNc4cccc5c4C(=O)N(C4CCC(=O)NC4=O)C5=O)CC3)cc3ccccc32)c1 (stereo not shown) [NC4] |  | could be depleted | consistently outperforming the first analogue NC1 | ~ 30 nM |
